The values below come from patent US6576422B1, “Method for identifying products employing gene expression” (Rohm and Haas Company, priority 2000, dated 2003).

One assay has as its system L57 cells. Put plainly: Insect cell-based marker ligand assay (EcR gene switch, β-galactosidase reporter), L57 cells. The conditions noted are these: Drosophila melanogaster, 48 h, read-out: L57 Cells (Fold Induction).
The subject of a further assay is BRL-AG2 cells. Put plainly: Insect cell-based marker ligand assay (EcR gene switch, β-galactosidase reporter), BRL-AG2 cells. The note with it: 48 h.
The mark [1] stands for this setting: read-out: BRL-AG2 (Fold Induction).
[2] abbreviates: read-out: BRL-AG2 Cells (Fold Induction).

Consider `COc1cccc(C(=O)NN(C(=O)c2cc(C)cc(C)c2)C(C)(C)C)c1C` [Marker, N′-tert-butyl-N′-(3 ,5-dimethylbenzoyl)-3-methoxy-2-methylbenzohydrazide], for which, in the assay on L57 cells, the fold induction at 0.07 µg/mL was 27, the fold induction at 0.12 µg/mL worked out at 1, the fold induction at 0.69 µg/mL was 46 and the fold induction at 1.2 µg/mL amounted to 23. In addition, in the assay on L57 cells, the fold induction at 6.95 µg/mL is 63 and the fold induction at 12 µg/mL was 30. For the same molecule, in the assay with BRL-AG2 cells (setting [1]), the fold induction at 0.12 µg/mL is 16, the fold induction at 1.2 µg/mL turned out to be 21 and the fold induction at 12 µg/mL amounted to 31. Further, in the assay on BRL-AG2 cells (setting [2]), the fold induction at 0.07 µg/mL turned out to be 151, the fold induction at 0.69 µg/mL was 182 and the fold induction at 6.95 µg/mL came to 202.
